Results: US20240368122A1, “JAK2 INHIBITORS AND METHODS OF USE THEREOF” (RELAY THERAPEUTICS, INC., priority 2021, published 2024)
Read-outs that look alike come from different tables or passages of the source.

What was measured:
[1] = test system: TF1 JAK2 V617F STAT5 reporter; assay: Cellular TF1 STAT5 assay (luciferase reporter), JAK2 V617F; type: cell-based; conditions: read-out: Cell PD TF1 V617F STAT5 (IC50)
How it was run: (§1)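 Measured in TF1 cells with mutant JAK2 V617F and STAT-responsive luciferase: 18-20 h compound exposure at 37 °C, then ONE-glo luminescence.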

[2] = target: T1, JAK2 JH2 WT (V536-D812) [W659A, W777A, F794H solubilizing mutations] (Homo sapiens, UniProt O60674, F794H/W659A/W777A); assay: Surface Plasmon Resonance (SPR) binding assay, JAK2 JH2 domain
T1 construct: **JAK2 JH2 WT (V536-D812) [W659A, W777A, F794H solubilizing mutations]; C-thrombin-avi-His6; thrombin cleavage site (C); His6 (C); purchased Biortus
T1 sequence (O60674 536-812 W659A/W777A/F794H): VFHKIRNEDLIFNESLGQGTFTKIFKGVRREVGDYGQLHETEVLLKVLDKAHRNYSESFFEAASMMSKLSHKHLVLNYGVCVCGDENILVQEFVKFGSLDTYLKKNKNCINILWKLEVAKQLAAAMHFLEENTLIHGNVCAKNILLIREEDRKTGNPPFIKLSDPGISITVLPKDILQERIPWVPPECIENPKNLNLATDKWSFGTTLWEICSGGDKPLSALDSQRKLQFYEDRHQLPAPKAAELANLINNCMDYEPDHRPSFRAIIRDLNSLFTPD
How it was run: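 Kinetics came from 1:1 fits of single-cycle runs at 20 °C: four 3-fold dilutions from 5 uM for JH1 or 500 nM for JH2, 60 s association, and 300 s or 1200 s dissociation respectively. Protein was freshly captured per compound in the presence of 10 uM stabilizer compound, with running buffer of pH 7.5 HEPES/NaCl/glycerol/DTT plus 2% DMSO.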

[3] = target: T2, JAK2 JH1 WT (T842-G1132) (Homo sapiens, UniProt O60674); assay: Surface Plasmon Resonance (SPR) binding assay, JAK2 JH1 domain
T2 construct: *JAK2 JH1 WT (T842-G1132) N-His60-avi-TEV; His6 (N); TEV cleavage site (N); purchased Biortus
T2 sequence (O60674 842-1132): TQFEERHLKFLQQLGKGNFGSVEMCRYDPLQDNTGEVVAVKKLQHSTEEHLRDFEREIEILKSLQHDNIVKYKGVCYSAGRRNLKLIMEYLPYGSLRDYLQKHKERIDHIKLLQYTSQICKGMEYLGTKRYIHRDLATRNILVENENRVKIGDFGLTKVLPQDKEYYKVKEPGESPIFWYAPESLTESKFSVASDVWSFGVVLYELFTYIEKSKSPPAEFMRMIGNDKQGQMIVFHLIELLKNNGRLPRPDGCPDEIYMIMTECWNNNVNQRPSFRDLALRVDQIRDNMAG
Protocol: Selected compounds of the present disclosure were tested in a Surface Plasmon Resonance (SPR) Assay to measure their binding kinetics and affinity for proteins of interest.
Prepare buffer: 50 mM HEPES pH 7.5, 150 mM NaCl, 0.05% (v/v) Tween, and 10% (v/v) glycerol were combined and pH was adjusted to 7.5, then filtered. 5 mM DTT, was added, and buffer without DMSO was reserved for compound resuspension. 2% (v/v) DMSO was added for assay buffer, and separately 1% DMSO was used to make buffer for resuspending compounds.
Prepare compounds: Using a Bravo liquid handler, 99 μL of 1% (v/v) DMSO assay buffer was added to 1 μL compounds in DMSO.
Run 8K Method: Biotin CAPture (CAP) chip surface was regenerated prior to run by: Inserting CAP chip into Biacore 8K, prime machine with assay buffer with 2% (v/v) DMSO; Setting instrument temperature to 20° C.; Conditioning surface with NaOH/GdnHCl reagents from CAP chip kit (60 seconds, 10 μL/min); and Capturing oligo-Streptavidin (SA) reagent from CAP kit (600 seconds, 1 μL/min), expected capture ˜2500 RU. JAK2 JH1 or JH2 protein was immobilized by preparing a sample of 0.5 uM JH1 or 0.4 uM JH2 protein diluted in assay buffer without DMSO and supplemented with 10 uM of a selected compound of the invention as a stabilizer (370 seconds, 5 uL/min), expected capture ˜1000 RU. Remaining biotin sites on SA were blocked with 1 uM biotin (30 seconds, 20 uL/min), then equilibrated for 1800 seconds at 100 uL/min. Compounds being assayed were run in single cycle kinetics: 4 doses with a top concentration of 5 uM (JH1) or 500 nM (JH2), dilution factor of 3, at 20° C., for a contact time of 60 seconds, and a dissociation time of 300 seconds (JH1) or 1200 seconds (JH2), at a flow rate of 30 uL/min. The surface was completely regenerated after each compound is run, and JH1 or JH2 protein was immobilized fresh prior to each new compound. Data were fitted kinetically with 1:1 binding model using Biacore Insight Evaluation Software.

[4] = test system: TF1 JAK2 V617F STAT3 reporter; assay: Cellular TF1 STAT3 assay (luciferase reporter), JAK2 V617F; type: cell-based; conditions: read-out: Cell PD-TF1 JAK2 V617F STAT3 (IC50)
How it was run: as §1

[5] = Homo sapiens, TF-1, TF1 cells, JAK2 V617F

| SMILES | IC50 ([1]; TF1 JAK2 V617F) | Kd ([2]; SPR, JAK2 JH2 domain) | Kd ([3]; SPR, JAK2 JH1 domain) | IC50 ([4]; TF1 JAK2 V617F) | IC50 [1, 5] | Kd [2] | Kd [3] | IC50 [4, 5] |
| --- | --- | --- | --- | --- | --- | --- | --- | --- |
| CNC(=O)c1nnc(NC(=O)C2CC2)cc1Nc1cccc(-c2cnc(C(=O)N(C)Cc3cc(C#N)ccn3)nc2)c1OC [Compound 36] | 50 to 500 nM | 0.01 to 10 nM | 5000 to 100000 nM | 50 to 500 nM | – | – | – | – |
| CNC(=O)c1nnc(NC(=O)C2CC2)cc1Nc1cccc(-c2cnn(C3CN(Cc4cccc(C(F)F)n4)C3)c2)c1OC [Compound 145] | 50 to 500 nM | 0.01 to 10 nM | 5000 to 100000 nM | 50 to 500 nM | – | – | – | – |
| CNC(=O)c1nnc(NC(=O)C2CC2)cc1Nc1cccc(-c2ccc(C(=O)N(C)Cc3cc(C#N)ccn3)cc2)c1OC [Compound 11] | 500 to 5000 nM | 0.01 to 10 nM | 5000 to 100000 nM | 500 to 5000 nM | – | – | – | – |
| CNC(=O)c1nnc(NC(=O)C2CC2)cc1Nc1cccc(-c2cn(C3CN(Cc4ccccn4)C3)nn2)c1OC [Compound 150] | 500 to 5000 nM | 0.01 to 10 nM | 5000 to 100000 nM | 500 to 5000 nM | – | – | – | – |
| CNC(=O)c1nnc(NC(=O)C2CC2)cc1Nc1cccc(-c2ccc(C(=O)N(C)Cc3cc(C#N)ccn3)nn2)c1OC [Compound 35] | 500 to 5000 nM | 0.01 to 10 nM | 5000 to 100000 nM | 50 to 500 nM | – | – | – | – |
| CNC(=O)c1nnc(NC(=O)C2CC2)cc1Nc1cccc(-c2cn(C3CN(Cc4cccc(C#N)n4)C3)nc2CO)c1OC [Compound 329] | – | – | – | – | 500 to 5000 nM | 0.01 to 10 nM | 500 to 5000 nM | 500 to 5000 nM |
| CNC(=O)c1nnc(NC(=O)C2CC2)cc1Nc1cccc(-c2cnn(C3CN(Cc4ccccn4)C3)c2)c1OC [Compound 39] | 50 to 500 nM | 0.01 to 10 nM | 500 to 5000 nM | 50 to 500 nM | – | – | – | – |
| CNC(=O)c1nnc(NC(=O)C2CC2)cc1Nc1cccc(-c2cnc(C(=O)NCc3cccn(C)c3=O)nc2)c1OC [Compound 9] | 5000 to 100000 nM | 0.01 to 10 nM | 500 to 5000 nM | 500 to 5000 nM | – | – | – | – |
| CNC(=O)c1nnc(NC(=O)C2CC2)cc1Nc1cccc(-c2cn(C3CN(Cc4cccc(C#N)n4)C3)nc2COC)c1OC [Compound 328] | – | – | – | – | 50 to 500 nM | 0.01 to 10 nM | 500 to 5000 nM | 50 to 500 nM |
| CNC(=O)c1nnc(NC(=O)C2CC2)cc1Nc1cccc(-c2cnc(C(=O)N(C)Cc3cc(C#N)ccn3)cc2C)c1OC [Compound 32] | 500 to 5000 nM | 0.01 to 10 nM | 5000 to 100000 nM | 500 to 5000 nM | – | – | – | – |

Other lines, results leading:

| IC50 ([1]; TF1 JAK2 V617F) | Kd ([2]; SPR, JAK2 JH2 domain) | Kd ([3]; SPR, JAK2 JH1 domain) | IC50 ([4]; TF1 JAK2 V617F) | IC50 [1, 5] | Kd [2] | Kd [3] | IC50 [4, 5] | SMILES |
| --- | --- | --- | --- | --- | --- | --- | --- | --- |
| 500 to 5000 nM | 0.01 to 10 nM | 5000 to 100000 nM | 500 to 5000 nM | – | – | – | – | CNC(=O)c1nnc(NC(=O)C2CC2)cc1Nc1cccc(-c2ccc(C(=O)N(C)Cc3nnc(C)s3)nc2)c1OC [Compound 149] |
| 500 to 5000 nM | 0.01 to 10 nM | 5000 to 100000 nM | 50 to 500 nM | – | – | – | – | CNC(=O)c1nnc(NC(=O)C2CC2)cc1Nc1cccc(-c2ccc(C(=O)N(C)Cc3cccnc3C#N)nc2)c1OC [Compound 136] |
| 50 to 500 nM | 0.01 to 10 nM | 5000 to 100000 nM | 50 to 500 nM | – | – | – | – | CNC(=O)c1nnc(NC(=O)C2CC2)cc1Nc1cccc(-c2ccc(C(=O)N(C)Cc3cccnc3)nc2)c1OC [Compound 30] |
| 50 to 500 nM | 0.01 to 10 nM | 5000 to 100000 nM | 50 to 500 nM | – | – | – | – | CNC(=O)c1nnc(NC(=O)C2CC2)cc1Nc1cccc(-c2ccc(C(=O)N(C)Cc3cnn(C)c3)nc2)c1OC [Compound 17] |
| 500 to 5000 nM | 0.01 to 10 nM | 5000 to 100000 nM | 500 to 5000 nM | – | – | – | – | CNC(=O)c1nnc(NC(=O)C2CC2)cc1Nc1cccc(-c2ccc(C(=O)N(C)Cc3ccnn3C)nc2)c1OC [Compound 40] |
| 50 to 500 nM | 0.01 to 10 nM | 5000 to 100000 nM | 50 to 500 nM | – | – | – | – | CNC(=O)c1nnc(NC(=O)C2CC2)cc1Nc1cccc(-c2ccc(C(=O)N(C)Cc3c(C)ccnc3C)nc2)c1OC [Compound 133] |
